Experimental data taken from paper PMC6571560, “Aldose Reductase, Protein Glycation Inhibitory and Antioxidant of Peruvian Medicinal Plants: The Case of Tanacetum parthenium L. and Its Constituents” (Molecules, 2019).

Columns and labels:
[1] = test system: advanced glycation end products (AGEs) formation; experiment: Bovine serum albumin-methylglyoxal assay for AGEs formation; type: biochemical; settings: for IC50: table head prints no unit, μM
Protocol: BSA (50 mg/mL) was incubated with methylglyoxal (100 mM) in sodium phosphate buffer (0.1 M, pH 7.4) in the presence of various concentrations of the compounds (including a control) at 37 °C for 24 h. Then, the fluorescence intensity was measured at an excitation wavelength of 355 nm and an emission wavelength of 460 nm with a luminescence spectrometer (LS50B, Perkin–Elmer Ltd., Buckinghamshire, UK). […] All reagents and samples were sterilized by filtration through […] membrane filters.

[2] = molecular target: T1, rat lens aldose reductase (RLAR) (Rattus norvegicus, UniProt P07943); experiment: Rat lens aldose reductase (RLAR) inhibition, NADPH absorbance decrease at 340 nm; type: biochemical; settings: for IC50: mean ± SEM, three independent experiments in duplicate
T1 construct: The supernatant was collected and used as the RLAR; from tissue; host or cells: lenses of Sprague-Dawley rats (homogenate supernatant)
Protocol: Crude RLAR was prepared as follows: lenses were removed from Sprague-Dawley rats (Weighing 250–280 g) and frozen at −70 °C until use. Non-cataractous transparent lenses were pooled, and a homogenate was prepared in 0.1 M phosphate-buffered saline (pH 6.2). The RLAR homogenate was then centrifuged at 10,000× gfor 20 min at 4 °C in a refrigerated centrifuge. The supernatant was collected and used as the RLAR [35]. This experiment was approved by the University of Hallym Animal Care and Use Committee (Registration Number: Hallym R2016-60). All of the procedures were conducted in accordance with the ‘Guide for Care and Use of Laboratory Animals’, published by the National Institutes of Health.
A total of 531 μL of 0.1 M potassium buffer (pH 7.0), 90 μL of NADPH solution (1.6 mM in potassium buffer), 90 μL of RLAR homogenate (6.5 U/mg), 90 μL of ammonium sulfate solution (4 M in potassium buffer), and 90 μL of DL-glyceraldehyde (25 mM in potassium buffer) were mixed with 9 μL of different concentrations of samples (1–0.1 mg/mL in dimethylsulfoxide (DMSO), Less than 1% in total mixture) in a cuvette, and the activity of RLAR was assessed spectrophotometrically by measuring the decrease in NADPH absorbance at 340 nm for 3 min using a spectrophotometer (SECOMAM, Ales Cedex, France).

[3] = molecular target: T2, human recombinant aldose reductase (HRAR) (Homo sapiens, UniProt P15121); experiment: Human recombinant aldose reductase ultrafiltration HPLC assay; type: binding; settings: peak in TP extract (0.1 mg/mL) incubated with 3.9 μM HRAR
T2 construct: purchased Wako Pure Chemical Industries (Osaka, Japan)
Protocol: The inhibitory compounds of HRAR from TP were profiled by an AR ultrafiltration assay. Specifically, TP (at a final concentration of 0.1 mg/mL) was incubated with 0.6 M ammonium sulfate and 3.9 μM HRAR in a total volume of 300 μL at 37 °C for 30 min. Then, the incubated mixture was filtered by using a Microcon YM-10 centrifugal filter unit by centrifugation at 5167× g for 30 min at room temperature. The filtrate was subsequently analyzed by using the methods mentioned in the HPLC analysis section. A sample incubated without HRAR was used as a control. The relative binding affinity of the inhibitors from TP toward HRAR was defined as the “binding degree” (BD), which can be calculated as follows: BD (%) = (Aa − Ab)/Aa × 100, in which Aa and Ab are the peak areas of a compound without and with HRAR in the HPLC chromatograms, respectively.

DPPH-HPLC assay = settings: peak in TP extract after reaction with DPPH, HPLC 254 nm
Protocol: The antioxidant compounds from TP were profiled with a DPPH-HPLC assay. TP (90 µL; 10.0 mg/mL) was mixed with 540 µL of DPPH solution (0.32 mM), and the mixed solution was then incubated at 37 °C for 20 min in a dark room. The solution was then filtered through a 0.45 µm membrane filter and then subjected to HPLC analysis. The HPLC conditions were the same as those described in the HPLC analysis section.

[4] = test system: sorbitol accumulation in rat lens; experiment: Lens culture and sorbitol accumulation in rat lens; type: cell-based; settings: compound 5 μg/mL, mean ± SD (n = 3); for Sorbitol Content (mg)/lens Wet Weight (g): rat lens cultured 6 d in 30 mM glucose; for inhibition at 5 µg/mL: rat lens cultured in 30 mM glucose
Protocol: Lenses isolated from 10-week-old Sprague-Dawley rats were cultured for 6 d in TC-199 medium that contained 15% fetal bovine serum, 100 units/mL penicillin, and 0.1 mg/mL streptomycin, under sterile conditions and an atmosphere of 5% CO2 and 95% air at 37 °C. The lenses were divided into three groups and cultured in medium containing 30 mM glucose and active compounds. Each lens was placed in a well containing 2.0 mL of medium. Sorbitol was determined by HPLC after derivatization by reaction with benzoic acid to a form of a fluorescent compound [37].

[5] = DPPH radical scavenging capacity
Protocol: The DPPH radical scavenging capacity assay method of Yin et al. was used. DPPH (0.32 mM) was diluted with MeOH, and this solution (180 µL) was mixed with 30 µL of the sample at each concentration. After 20 min of incubation in a darkroom, the absorbance at 570 nm was recorded on a microplate reader (EL800 Universal Microplate reader, Bio-Tek Instruments, Winooski, VT, USA). DPPH radical scavenging activity was expressed as the percentage inhibition (%) of DPPH in the aforementioned assay system and was calculated as (1 – B/A) × 100, in which A and B are the activities of DPPH without and with the test material, respectively.

| Structure (SMILES) | AGEs Inhibition (%) ([1]; 20 μg/mL) | IC50 [2] | HRAR binding degree (%) [3] | DPPH PAR (%), peak area reduction (DPPH-HPLC assay) | Sorbitol Content (mg)/lens Wet Weight (g) [4] | inhibition at 5 µg/mL [4] | IC50 [1] | further results |
| --- | --- | --- | --- | --- | --- | --- | --- | --- |
| N=C(N)NN [Aminoguanidine, aminoguanidine, reference compound] | 20.75% |  |  |  |  |  |  | AGEs Inhibition (%) ([1]; 100 μg/mL): 39.94%; AGEs Inhibition (%) ([1]; 200 μg/mL): 75.32%; AGEs IC50 ([1]; mean ± SEM): 121.96 ± 5.10 µg/mL |
| COc1cc(/C=C/C(=O)O)ccc1O [Compound 1, ferulic acid] |  | 1.11 to 3.2 µM | 27.08% | 23.53% | 0.29 ± 0.03 mg/g | 80.3 ± 2.38% |  |  |
| O=c1cc(-c2ccc(O)cc2)oc2cc(O)cc(O)c12 [Compound 2, apigenin] | 8.14% | 1.11 to 3.2 µM | 15.00% | 11.28% | 0.19 ± 0.06 mg/g | 87.1 ± 2.37% | > 55 µM |  |
| O=c1cc(-c2ccc(O)c(O)c2)oc2cc(O[C@@H]3O[C@H](CO)[C@@H](O)[C@H](O)[C@H]3O)cc(O)c12 [Compound 3, luteolin-7-O-glucoside] |  | 1.11 to 3.2 µM | 26.58% | 16.85% | 0.07 ± 0.01 mg/g | 95.2 ± 5.97% |  | AGEs inhibition potency relative to aminoguanidine (times higher) ([1]; ratio of IC50 values): 32.23 times |
| O=c1cc(-c2ccc(O)c(O)c2)oc2cc(O)cc(O)c12 [Compound 4, luteolin] |  |  | 38.02% | 29.36% | 0.12 ± 0.02 mg/g | 91.8 ± 5.23% |  |  |
| COc1cc2oc(-c3ccc(O)c(O)c3)c(OC)c(=O)c2c(O)c1OC [Compound 5, chrysosplenol] | 5.38% | 1.11 to 3.2 µM | 25.54% | 7.19% | 0.26 ± 0.03 mg/g | 82.3 ± 2.39% | > 55 µM | IC50 ([5]; mean ± SEM, listed as Chrysosplenol (5)): > 250 µM |
| O=c1c(O)c(-c2ccc(O)cc2)oc2cc(O)cc(O)c12 [Compound 6, kaempferol] |  | 1.11 to 3.2 µM | 24.29% | 13.97% | 0.03 ± 0.00 mg/g | 98 ± 6.31% | > 55 µM |  |
| COc1ccc(-c2oc3cc(O)c(OC)c(O)c3c(=O)c2OC)cc1 [Compound 7, santin] | 13.15% | > 28 µM | 0% | 0% |  |  | > 55 µM | IC50 ([5]; mean ± SEM): > 208 µM |
| O=C1O[C@H]([C@@H](O)CO)C(O)=C1O [L-ascorbic acid] |  |  |  |  |  |  |  | DPPH Inhibition (%) ([5]; 3 μg/mL): 33.71%; DPPH Inhibition (%) ([5]; 7.5 μg/mL): 58.34%; DPPH Inhibition (%) ([5]; 15 μg/mL): 97.23%; DPPH IC50 ([5]; mean ± SEM): 6.02 ± 0.37 µg/mL |
| O=c1c(O)c(-c2ccc(O)c(O)c2)oc2cc(O)cc(O)c12 [Quercetin, quercetin, reference compound] |  |  |  |  | 0.21 ± 0.02 mg/g | 85.7 ± 5.71% |  | inhibition at 0.5 µg/mL ([2]; 0.5 μg/mL): 23.6%; inhibition at 1 µg/mL ([2]; 1 μg/mL): 44.8%; inhibition at 10 µg/mL ([2]; 10 μg/mL): 81.3% |
